Test results published in patent publication US12661338B2, “Heterocyclic compounds as modulators of beta-catenin / TCF4 interaction” (AGENCY FOR SCIENCE, TECHNOLOGY AND RESEARCH, priority 2019, dated 2026).
Like-named read-outs stand apart in the source and are kept apart here.

What was measured:
CRC1463 = assay: Viability of primary patient-derived colorectal cancer cell line; type: cell-based
CRC1414 = assay: as above; type: cell-based
[1] = tested on: Wnt signalling (TOPFlash reporter, STF cells); assay: Wnt STF TOPFlash reporter dose response (Wnt3A-stimulated); type: cell-based
Protocol: Wnt STF reporter cells (HEK 293 cells stably transfected with TOPFlash reporter) and STF3A reporter cells (STF cells with constitutive secretion of Wnt3A) were kind gifts from David Virshup (Duke-NUS Graduate Medical School, Singapore). HCT116, DLD-1, and SW480 cell lines were obtained from ATCC. The Hippo pathway TEAD reporter (cat. #60618) and Myc signalling pathway reporter (cat. #60520) cells lines were purchased from BPS Bioscience, Inc.
(§1) The Wnt STF reporter cells were seeded as 20,000 cells in 100 μL culture medium per well in 96-well plates (Corning cat. #3903, Falcon cat. #353072). The next day, 5-fold dilutions of the compounds in DMSO were added to the cells at a final concentration of 1% DMSO. The cells were also stimulated with 500 ng/mL recombinant human Wnt3A (RnD systems, cat. #5036-WN-010). After 24 hr incubation, the viability of the cells was determined with cell counting kit-8 (CCK-8, Dojindo cat. #CK04) cell viability reagent according to the manufacturer's protocol while the TOPFlash reporter activity was determined with Steady-Glo luciferase reagent.
(§2) The average signal from DMSO treated wells was calculated for each plate, and the signal from each treatment well was normalized against the average DMSO signal from the respective plate. The normalized values were plotted against the concentrations tested using GraphPad Prism 5, and the EC50 values were determined through either three- or four-parameter nonlinear regression.

HCT116 xenografts = assay: Mouse xenograft and compound treatment; type: in vivo; conditions: NSG mice, 50 mg/kg every other day i.p.
Protocol: HCT 116 cells (1×10^6 cells per site) and were implanted subcutaneously into the right flanks of 5-7 weeks old NSG (NOD scid gamma) (Jackson Laboratory, stock no. 005557) mice. When tumours reached a size of 60-100 mm^3 in volume, the animals were randomised to either the treatment or control group. Mice in the treatment group were administered with compound GB1874 at 50 mg/kg every other day via intraperitoneal injection. Simultaneously animals in the control group were administered with the diluent in the absence of compound. Compound GB1874 was prepared by dissolving it in DMSO to a concentration of 60 mg/mL and diluting it in 5% PEG 300, 5% Tween-80 in saline to a final concentration of 3 mg/mL, 5% DMSO. The length and width of tumours were measured by caliper once every 2 days. Tumour volumes were estimated using the following modified ellipsoidal formula: Tumour volume=½(length×width^2). Mice were euthanized when tumours in the control group reaches 2000 mm^3.

[2] = tested on: Wnt target genes in HCT116 CRC cells; assay: Expression of beta-catenin (CTNNB1) and Wnt target genes in HCT116 CRC cells; type: cell-based
Protocol: The effects of the GB1874 analogues were tested on the expression of Wnt target genes in HCT116 CRC cells.

[3] = biological target: T1, β-cat / GST-TCF4 N-terminal domain interaction (Homo sapiens, UniProt P35222); assay: SPR inhibition of β-cat-TCF4 interaction; type: binding; conditions: SPR competition, 50 nM β-cat pre-incubated 15 min, n=2; read-out: IC50 inhibition of interaction between β-cat and TCF4
T1 construct: His-tagged human β-cat (134-668); made in house; host or cells: E. coli BL21(DE3)
T1 sequence (P35222 134-668): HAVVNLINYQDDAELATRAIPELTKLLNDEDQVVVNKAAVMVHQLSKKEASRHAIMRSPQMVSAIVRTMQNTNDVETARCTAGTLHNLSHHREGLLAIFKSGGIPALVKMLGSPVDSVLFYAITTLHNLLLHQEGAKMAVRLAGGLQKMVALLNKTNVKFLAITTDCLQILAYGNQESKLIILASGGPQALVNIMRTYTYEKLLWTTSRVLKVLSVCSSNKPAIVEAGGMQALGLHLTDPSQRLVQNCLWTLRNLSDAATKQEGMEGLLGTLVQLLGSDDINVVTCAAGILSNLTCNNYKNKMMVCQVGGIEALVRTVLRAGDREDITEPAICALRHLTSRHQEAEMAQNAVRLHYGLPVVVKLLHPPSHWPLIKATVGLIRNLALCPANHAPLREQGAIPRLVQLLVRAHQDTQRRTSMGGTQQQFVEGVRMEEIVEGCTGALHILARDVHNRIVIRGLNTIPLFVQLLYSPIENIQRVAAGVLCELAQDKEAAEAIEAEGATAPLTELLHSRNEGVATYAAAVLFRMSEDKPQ
Protocol: BL21(DE3) cells harboring pET-28 β-cat expression vector of His-tagged human β-cat (134-668) were cultured at 37° C. until OD600=0.6-0.8. The cells were then induced with 500 μM isopropyl-β-D-thiogalactopyranoside (IPTG) for 6-8 hr at 23° C. Cells were lysed by sonication in lysis buffer containing 20 mM Tris (pH 8.8), 250 mM NaCl, 2 mM DTT, 5% glycerol, 0.1% Triton X-100, and cOmplete protease inhibitor cocktail (EDTA free, Roche cat. #11873580001). The lysate was incubated with Ni-NTA agarose beads (Qiagen cat. #30210) at 4° C. for 1 hr, and the beads were then washed with lysis buffer containing 20 mM imidazole. Bound protein was eluted with buffer containing 20 mM Tris (pH 8.8), 250 mM NaCl, 0.5 mM tris(2-carboxyethyl)phosphine (TCEP), 5% glycerol, and 250 mM imidazole.
GST-tagged TCF4 N-terminal domain was expressed similarly in BL21(DE3) cells, induced for 2-4 hr at 23° C. with IPTG, and purified from glutathione agarose beads (Pierce cat. #16100) using buffer containing 20 mM Tris (pH 8.8), 250 mM NaCl, 0.5 mM TCEP, 5% glycerol, and 10 mM reduced glutathione.
GST-tag TCF4 N-terminal domain (31 kDa, >90% pure based on SDS-PAGE) was immobilized on a CM5 series S sensor chip using amine-coupling chemistry. […]

STF cells = assay: Viability (toxicity) of STF reporter cells, CCK-8; type: cell-based; conditions: Table 3; STF reporter cell line
Protocol: as §1, §2

CRC1775 = assay: Viability of primary patient-derived colorectal cancer cell line; type: cell-based
[4] = tested on: Hippo pathway TEAD reporter cells; assay: Hippo signalling TEAD reporter dose response; type: cell-based; conditions: 24 hr, inhibition of the Hippo pathway, read-out: IC50 Hippo
Protocol: The Hippo TEAD reporter cells were seeded as 100,000 cells in 100 μL assay medium per well in 96-well plates (Corning cat. #3903, Falcon cat. #353072). The assay medium consists of the growth medium without G-418. The next day, 5-fold dilutions of the compounds in DMSO were added to the cells at a final concentration of 1% DMSO. After 24 hr incubation, the viability of the cells was determined with CCK-8 cell viability reagent while the luciferase reporter activity was determined with Steady-Glo luciferase reagent.
as §2

CRC1177 = assay: Viability of primary patient-derived colorectal cancer cell line; type: cell-based

For `CCc1ccc(OCc2nnc(SC3CCCC3=O)n2C(C)c2ccccc2)cc1` (stereo not drawn) [GB1874], the EC50 (CRC1463) was 27 µM, the EC50 (CRC1414) was 42 µM and the IC50 ([1]; Table 1, STF reporter cells, 500 ng/mL Wnt3A, 24 hr, read-out: IC50 Wnt (STF)) was 11 µM. For the same molecule, the IC50 ([1]; Table 3, STF reporter cell line, read-out: STF Inhibition IC50) was 6.8 µM, the IC50 ([1]; unit M, read-out: STF IC50) was 6.8 µM and the “expression of cyclin D1 and Ki67 in xenograft tumours (IHC)” value (HCT116 xenografts) was “reduction in the expression of Wnt target gene, cyclin D1, as well as the proliferation marker, Ki67”. The “systemic toxicity in the mice (body weight)” value (HCT116 xenografts; 2 weeks) was “minimal systemic toxicity”, the “growth of HCT116 xenografts (tumour volume)” value (HCT116 xenografts; 2 weeks, 50 mg/kg) was “effectively inhibited the growth of HCT116 xenografts in vivo” and the “beta-catenin (CTNNB1) gene expression” value [2] was “lesser effect”. For the same molecule, the “expression of Wnt target genes AXIN2, BIRC5, BMP4, CCND1” value [2] was “potently inhibit Wnt target genes”, the IC50 [3] was 25 ± 8 µM and the IC50 (STF cells) was 66 µM. The EC50 (CRC1775) was 74 µM, the IC50 [4] was greater than 100 µM and the EC50 (CRC1177) was 19 µM.
